Assay results: patent US7091185B2, “Periodic antimicrobial peptides” (Dow Global Technologies Inc., priority 2003, dated 2006)
Where two headings read alike, the source gives them in different places. Where no end group is shown, it is not given here.

Tests used:
Cr. Neoformans 32045 = type: cell-based
Description: (§1) The MIC and IC50 values were determined by a broth microdilution method according to guidelines of the National Committee for Clinical Laboratory Standard as follows: In 96-well tissue culture plates, a fixed volume of bacterial suspension in 2× broth (as defined below) was added to the mixtures or individual compounds dispensed at concentrations varying from 1,000 to 1 μg/ml derived from serial two-fold dilutions in sterile water. The bacteria tested were P. aeruginosa American Type Culture Collection Number (ATCC) 10145, E. coli ATCC 2592, and S. aureus (methicillin reseistant) ATTC 33591.
(§2) The plates were incubated overnight, and the relative percent growth determined by optical density at 620 nm (OD620) using a TITERTEK MULTISKAN PLUS™. […] IC50 values were calculated using a sigmoidal curve fitting software program (GRAPHPAD,™ ISI Software,™ San Diego, Calif.). All samples were tested in duplicate and each assay was repeated at least twice. In the following table, KFAK is the repeat unit and multimers of KFAK were tested. IC50 and MIC are reported in μg/ml.
(§3) Because the antibacterial activity of the periodic peptides was so promising, further experiments were performed to determine if the periodic peptides also had antifungal activity. The experimental design was similar to that above, with accommodation made for fungal growth requirements, including the use of Sabouraud Dextrose Broth (SDB) and Sabouraud Dextrose Agar (SDA) slants.

C. albicans 10231 = type: cell-based; details: 10231
Description: as §1, §2, §3

P. aeruginosa ATCC 10145 = details: ATCC 10145
Description: (§4) The bacteria tested were P. aeruginosa American Type Culture Collection Number (ATCC) 10145, E. coli ATCC 2592, and S. aureus (methicillin reseistant) ATTC 33591.
(§5) All experiments were compared to bacterial growth under optimal growth conditions (37° C., pH 7.0, absence of additional salt, growth media—referred to as standard growth conditions). In each plate, no growth control (media alone), positive growth control (bacteria with no test sample), positive antimicrobial controls (agents with known antimicrobial activity) and test compounds were tested.
(§6) The plates were incubated overnight, and the relative percent growth determined by optical density at 620 nm (OD620) using a […] […] PLUS™. […] All samples were tested in duplicate and each assay was repeated at least twice. […] IC50 and MIC are reported in μg/ml.

[1] = system: S. aureus (methicillin resistant) ATCC 33591; details: ATCC 33591
Description: as §4, §5, §6

E. coli ATCC 2592 = details: ATCC 2592
Description: as §4, §5, §6

P. aeruginosa ATCC 15442 = assay: HMARQ biocidal kill activity; type: cell-based; details: P. aeruginosa ATCC 15442 (gram−)
Description: (§7) Biocide efficacy protocols were improved by reducing sample size, organizing the test material into an array format, implementing most probable number (MPN) quantitation and using multi-channel liquid handling equipment. We call the new method “high-throughput microanalysis and rapid quantitation” or “HMARQ.” HMARQ is directly applicable to current industrial efficacy tests such as multi-cycle preservation challenge or time course disinfection tests.
(§8) HMARQ is performed in a high throughput plate, such as 96-well microtiter plates. Typical sample volumes have been reduced down to 200 to 300 μL, but can be reduced further if desired. In these samples, no more than 10% of the total volume will be composed of the biocide and organism solution, and all non-matrix additions are normalized for all samples.
(§9) The sample matrix is first inoculated with the desired concentration of microorganisms. Inoculated sample matrix is then added to the 96-well assay block containing the biocide(s) under study. Each sample block contains biocide treated samples and untreated control samples (lacking biocide). Once the samples are prepared, the entire block of samples is mixed by vortexing until each sample is homogenous. In general, the study starts once mixing is complete, and samples are removed as required for the analysis. When Kill Time testing (rate of biocide activity) is performed, the microorganisms are added after biocide addition to the samples, allowing for rapid mixing and analysis.
(§10) Bacterial concentration (CFU/mL) is determined using the most probable number method (MPN). The contaminated solution is serially diluted until the “no growth” endpoint is reached. The endpoint represents the MPN and is expressed in units of the bacterial concentration. A serial 1:10 dilution will yield a bacterial concentration resolution of 1 log and the log reduction is determined by comparing the concentration of organisms in a treated sample to the concentration of organisms in untreated samples. For example, if a sample requires four 1:10 dilutions before bacterial growth is lost then the MPN for bacterial concentration in the sample is less than or equal to 1×10^4 CFU/mL (1E4). […] This method of enumeration is generally applicable to all non-filamentous microorganisms.
(§11) Media included Tryptic Soy Broth (TSB) for bacteria and Sabouraud Dextrose Broth (SDB) for fungi. These are available commercially and prepared according to the manufacturers instructions. Indicator medium was TSB/R for bacteria and SDB/R for fungi. These were made by addition of 50 μM filter sterilized Resazurin to the sterilized and cooled medium. Tryptic Soy agar plates (TSA) and SDA slants were used to provide inoculant for bacterial and fungal cultures. The indicator dye appeared pink or white when bacterial growth was present.
(§12) Using the HMARQ test described above, periodic peptides were generated and tested for Kill Activity. In this experiment, a broader range of peptidezs were tested for activity. Units are expressed as ppm (μg/mL) needed for 3.5 log kill at 15 min or 24 hour and the results are shown below.

Staph. aureus ATCC 6538 = assay: HMARQ biocidal kill activity; type: cell-based; details: Staph. aureus ATCC 6538 (gram+)
Description: as §7, §8, §9, §10, §11, §12

Red blood cell toxicity = type: cell-based; details: red blood cells (RBC)
Red blood cells (RBC) = assay: Red blood cell toxicity; type: cell-based
HeLa cell line = assay: HeLa MTS cellular reduction toxicity assay; type: cell-based; details: for TX50: 24 h, MTS
Description: The RBC protocol was from Blondelle (2000) and is described generally as follows: The toxicity toward the HeLa cell line was determined using a MTS (3-(4-5-dimethylthiazol-2-yl)-5-(3carboxymethoxyphenyl)-2-(4-sulfophenyl)-2H-tetrazolium, sodium salt) cellular reduction assay. MTS (2 mg/mL) was prepared in Dulbecco PBS (pH 7.35), filtered, aliquoted and stored at minus 20° C. In 96 well flat bottomed plates, cell suspensions (250 μL of 6×10^4 cell/mL in each well) were incubated for 48 h at 37° C. (5% CO2 incubator). The peptides (50 μL) were then added to the cell monolayer (following aspiration of the media from each well and addition of 50 μL of Dulbecco's Modified Eagles Medium) at varying concentrations derived from serial 2-fold dilutions, and the plates incubated for 24 h at 37° C. (5% CO2 incubator). Proliferation was then determined by adding a solution of phenazine methosulfate (PMS: 0.92 mg/mL in DPBS) to MTS at a 1:20 ration just prior to the assay. Twenty microliters MTS-PMS solution were added to each well and the plates incubated for 1 h at 37° C. (5% CO2 incubator). The relative percent toxicity was determined by comparing the absorbance at 490 nm of each peptide to the absorbance of cells without peptide. The TX50 (concentration required for 50% toxicity) was calculated using a sigmoidal curve fitting software (Graphpad Prism).

[2] = RBCs, concentration required for 50% toxicity, read-out: TX50

Substance	IC50 (Cr. Neoformans 32045) [µg/mL]	MIC (Cr. Neoformans 32045) [µg/mL]	IC50 (C. albicans 10231) [µg/mL]	MIC (C. albicans 10231) [µg/mL]	IC50 (P. aeruginosa ATCC 10145) [µg/mL]	MIC (P. aeruginosa ATCC 10145) [µg/mL]	IC50 [1] [µg/mL]	MIC [1] [µg/mL]	IC50 (E. coli ATCC 2592) [µg/mL]	MIC (E. coli ATCC 2592) [µg/mL]	ppm needed for 3.5 log kill at 15 min (P. aeruginosa ATCC 15442) [ppm]	ppm needed for 3.5 log kill at 24 hr (P. aeruginosa ATCC 15442) [ppm]	ppm needed for 3.5 log kill at 15 min (Staph. aureus ATCC 6538) [ppm]	ppm needed for 3.5 log kill at 24 hr (Staph. aureus ATCC 6538) [ppm]	HC50 at 24 h (Red blood cell toxicity) [µg/mL]	% kill at 250 μg/ml (Red blood cells (RBC)) [%]	% kill at 500 μg/ml (HeLa cell line) [%]	TX50 (HeLa cell line) [µg/mL]	HC50 at 24 h (Red blood cell toxicity; [2]) [µg/mL]
AKKFAKKFAKKFAKKFAKKFAKKF [AKKF (6), AKKF AKKF AKKF AKKF AKKF AKKF]	11	16 to 32	225	250 to 500	21	25	41	125 to 250	8	16 to 32	>500	16	>500	125	39	100	7.3	33	–
FKAFKAFKAFKAFKAFKA [FKA (6), FKA FKA FKA FKA FKA FKA]	2.8	4 to 8	208	250 to 500	79	100	>500	>500	29	32 to 62	8	8	4	500	–	28	110.8	>500	496
FKAFKAFKAFKAFKAFKAFKA [FKA (7), FKA FKA FKA FKA FKA FKA FKA]	3.2	4 to 8	203	250 to 500	23	32	>500	>500	7	16 to 32	125	63	500	500	–	11	103.3	>500	> 500
H-FAKKFAKKFAKKFAKKFAKKFAKK-OH [FAKK (6), FAKK FAKK FAKK FAKK FAKK FAKK]	7.6	16 to 32	110	125 to 250	21	62	108	>250	11	17 to 32	>500	16	>500	250	> 500	7	28.3	359	–
